Test results from patent US5126336A, “Antibiotic C-3 catechol-substituted cephalosporin compounds, compositions and method of use thereof” (Bristol-Myers Squibb Company, priority 1990, dated 1992).
In brackets after ≈: the same amount, converted by molar mass.

Experiments:
Format in all cases: cell-based
[1] = test system: Gp-Ia: Penicillin(PC)-sensitive S. aureus (5 strains); assay: MIC, two-fold serial agar dilution, Gp-Ia; conditions: Staphylococcus aureus, Mueller-Hinton agar, read-out: Geometric mean of MIC
Procedure: (§1) Minimum inhibitory concentrations (MICs) of the present series of cephalosporins were determined against 32 strains of test organisms by two-fold serial agar dilution method in Mueller-Hinton agar. Geometric means of MICs were calculated against six groups of the test organisms which are classified as follows and summarized in Table 1.
Gp-Ia Penicillin(PC)-sensitive S. aureus (5 strains).

[2] = test system: Gp-Ib: Penicillin(PC)-resistant S. aureus (5); assay: MIC, two-fold serial agar dilution, Gp-Ib; conditions: Staphylococcus aureus, 5 strains, Mueller-Hinton agar, read-out: Geometric mean of MIC
Procedure: as §1
Gp-Ib Penicillin(PC)-resistant S. aureus (5).

[3] = test system: Gn-Ia: Cephalothin(CET)-sensitive E. coli (2), Kl. pneumoniae (1) and Pr. mirabilis (2); assay: MIC, two-fold serial agar dilution, Gn-Ia; conditions: 5 strains, Mueller-Hinton agar, read-out: Geometric mean of MIC
Procedure: as §1
Gn-Ia Cephalothin(CET)-sensitive E. coli (2), Kl.
pneumoniae (1) and Pr. mirabilis (2).

[4] = test system: Gn-Ib: Cephalothin(CET)-resistant E. coli (3) and Kl. pneumoniae (2); assay: MIC, two-fold serial agar dilution, Gn-Ib; conditions: Escherichia coli, read-out: Geometric mean of MIC, Gn-Ib, 5 strains; Mueller-Hinton agar
Procedure: as §1
Gn-Ib Cephalothin(CET)-resistant E. coli (3) and Kl.

[5] = test system: Gn-II: M.morganii (1), Ent. cloacae (2) and Ser. marcescens (2); assay: MIC, two-fold serial agar dilution, Gn-II; conditions: Gn-II, 5 strains; Mueller-Hinton agar; read-out: Geometric mean of MIC
Procedure: as §1
Gn-II M.morganii (1), Ent. cloacae (2) and Ser.

[6] = test system: Gn-III: Ps. aeruginosa (7); assay: MIC, two-fold serial agar dilution, Gn-III; conditions: Pseudomonas aeruginosa, Gn-III, 7 strains; Mueller-Hinton agar; read-out: Geometric mean of MIC
Procedure: as §1
Gn-III Ps. aeruginosa (7).

B. subtilis PCI 219 = assay: MIC, agar dilution; conditions: Bacillus subtilis, PCI219, Mueller-Hinton agar pH 7.2, 32° C., 18 hr, 10^6 cells/ml
Procedure: as §1
(§2) Medium; MuellerHinton agar (pH = 7.2)
(§3) Incubation temperature: 32° C., 18 hr
(§4) Inoculum size; 10^6 cells/ml

C. freundii GN 7391 = assay: MIC, agar dilution; conditions: Citrobacter freundii, GN7391, Mueller-Hinton agar pH 7.2, 32° C., 18 hr, 10^6 cells/ml
Procedure: as §1, §2, §3, §4

C. terrigena IFO 12685 = assay: MIC, agar dilution; conditions: Mueller-Hinton agar pH 7.2, 32° C., 18 hr, 10^6 cells/ml
Procedure: as §1, §2, §3, §4

E. cloacae IPM-12 = assay: MIC, agar dilution; conditions: Enterobacter cloacae, IPM12, Mueller-Hinton agar pH 7.2, 32° C., 18 hr, 10^6 cells/ml
Procedure: as §1, §2, §3, §4

E. coli 255 = assay: MIC, agar dilution; conditions: Escherichia coli, Mueller-Hinton agar pH 7.2, 32° C., 18 hr, 10^6 cells/ml
Procedure: as §1, §2, §3, §4

E. faecalis A9808 = assay: MIC, agar dilution; conditions: Enterococcus faecalis, Mueller-Hinton agar pH 7.2, 32° C., 18 hr, 10^6 cells/ml
Procedure: as §1, §2, §3, §4

E. faecium A24817 = assay: MIC, agar dilution; conditions: Enterococcus faecium, Mueller-Hinton agar pH 7.2, 32° C., 18 hr, 10^6 cells/ml
Procedure: as §1, §2, §3, §4

K. pneumoniae PCI 602 = assay: MIC, agar dilution; conditions: Klebsiella pneumoniae, PCI602, Mueller-Hinton agar pH 7.2, 32° C., 18 hr, 10^6 cells/ml
Procedure: as §1, §2, §3, §4

M. luteus 1001 = assay: MIC, agar dilution; conditions: Micrococcus luteus, Mueller-Hinton agar pH 7.2, 32° C., 18 hr, 10^6 cells/ml
Procedure: as §1, §2, §3, §4

M. morgani 1510/9 = assay: MIC, agar dilution; conditions: Mueller-Hinton agar pH 7.2, 32° C., 18 hr, 10^6 cells/ml
Procedure: as §1, §2, §3, §4

M. morgani 1510 = assay: MIC, agar dilution; conditions: Mueller-Hinton agar pH 7.2, 32° C., 18 hr, 10^6 cells/ml
Procedure: as §1, §2, §3, §4

P. aeruginosa A20599 = assay: MIC, agar dilution; conditions: Pseudomonas aeruginosa, Mueller-Hinton agar pH 7.2, 32° C., 18 hr, 10^6 cells/ml
Procedure: as §1, §2, §3, §4

P. aeruginosa IPM-8 = assay: MIC, agar dilution; conditions: Pseudomonas aeruginosa, IPM8, Mueller-Hinton agar pH 7.2, 32° C., 18 hr, 10^6 cells/ml
Procedure: as §1, §2, §3, §4

P. aeruginosa IPM-9 = assay: MIC, agar dilution; conditions: Pseudomonas aeruginosa, IPM9, Mueller-Hinton agar pH 7.2, 32° C., 18 hr, 10^6 cells/ml
Procedure: as §1, §2, §3, §4

P. aeruginosa KKA 19 = assay: MIC, agar dilution; conditions: Pseudomonas aeruginosa, KKA19, Mueller-Hinton agar pH 7.2, 32° C., 18 hr, 10^6 cells/ml
Procedure: as §1, §2, §3, §4

P. cepacia A21213 = assay: MIC, agar dilution; conditions: Burkholderia cepacia, Mueller-Hinton agar pH 7.2, 32° C., 18 hr, 10^6 cells/ml
Procedure: as §1, §2, §3, §4

P. cepacia No. 651 = assay: MIC, agar dilution; conditions: Burkholderia cepacia, Mueller-Hinton agar pH 7.2, 32° C., 18 hr, 10^6 cells/ml
Procedure: as §1, §2, §3, §4

P. mirabilis IFO-2849 = assay: MIC, agar dilution; conditions: Proteus mirabilis, IFO2849, Mueller-Hinton agar pH 7.2, 32° C., 18 hr, 10^6 cells/ml
Procedure: as §1, §2, §3, §4

P. rettgeri IPM-14 = assay: MIC, agar dilution; conditions: Providencia rettgeri, IPM14, Mueller-Hinton agar pH 7.2, 32° C., 18 hr, 10^6 cells/ml
Procedure: as §1, §2, §3, §4

P. vulgaris IPM-13 = assay: MIC, agar dilution; conditions: Proteus vulgaris, IPM13, Mueller-Hinton agar pH 7.2, 32° C., 18 hr, 10^6 cells/ml
Procedure: as §1, §2, §3, §4

S. aureus 209P = assay: MIC, agar dilution; conditions: Staphylococcus aureus; S. aureus 209P; Mueller-Hinton agar pH 7.2; 32° C., 18 hr; 10^6 cells/ml; read-out: MIC
Procedure: as §1, §2, §3, §4

S. aureus 4-1015 (MRSA) = assay: MIC, agar dilution; conditions: Staphylococcus aureus, Mueller-Hinton agar pH 7.2, 32° C., 18 hr, 10^6 cells/ml
Procedure: as §1, §2, §3, §4

S. aureus IPM-24 (MRSA) = assay: MIC, agar dilution; conditions: Staphylococcus aureus, Mueller-Hinton agar pH 7.2, 32° C., 18 hr, 10^6 cells/ml
Procedure: as §1, §2, §3, §4

S. epidermidis 11-1230 = assay: MIC, agar dilution; conditions: Staphylococcus epidermidis, 111230, Mueller-Hinton agar pH 7.2, 32° C., 18 hr, 10^6 cells/ml
Procedure: as §1, §2, §3, §4

S. marcescens IPM-15 = assay: MIC, agar dilution; conditions: Serratia marcescens, IPM15, Mueller-Hinton agar pH 7.2, 32° C., 18 hr, 10^6 cells/ml
Procedure: as §1, §2, §3, §4

S. marcescens IPM-16 = assay: MIC, agar dilution; conditions: Serratia marcescens, IPM16, Mueller-Hinton agar pH 7.2, 32° C., 18 hr, 10^6 cells/ml
Procedure: as §1, §2, §3, §4

X. maltophilia GN 12873 = assay: MIC, agar dilution; conditions: Stenotrophomonas maltophilia, GN12873, Mueller-Hinton agar pH 7.2, 32° C., 18 hr, 10^6 cells/ml
Procedure: as §1, §2, §3, §4

X. maltophilia No. 661 = assay: MIC, agar dilution; conditions: Stenotrophomonas maltophilia, Mueller-Hinton agar pH 7.2, 32° C., 18 hr, 10^6 cells/ml
Procedure: as §1, §2, §3, §4

E. coli Juhl A15119 = assay: MIC, agar dilution; conditions: Escherichia coli, JUHLA15119; E. coli Juhl A15119; Mueller-Hinton agar pH 7.2; 32° C., 18 hr; 10^6 cells/ml; read-out: MIC
Procedure: as §1
(§5) In vivo antibacterial activity was determined against three bacterial infections (S. aureus Smith, E. coli Juhl and P. aeruginosa A9843A) by intramuscular administration to mice just after the bacterial challenge. PD50 values are summarized in Table 3 in comparsion with the MIC values against the corresponding organisms.
as §2, §3, §4

P. aeruginosa A9843A = assay: MIC, agar dilution; conditions: Pseudomonas aeruginosa, A9843A, 18 h, pH 7.2
Procedure: as §1, §5, §2, §3, §4

S. aureus Smith = assay: MIC, agar dilution; conditions: Staphylococcus aureus; S. aureus Smith; Mueller-Hinton agar pH 7.2; 32° C., 18 hr; 10^6 cells/ml; read-out: MIC
Procedure: as §1, §5, §2, §3, §4

C[N+]1(C/C=C/C2=C(C(=O)[O-])N3C(=O)C(NC(=O)/C(=N\OCC(=O)O)c4csc(N)n4)C3SC2)Cc2cc(O)c(O)cc2C1 (stereo not shown) [Ih, 7-[(Z)-2-(2-Aminothiazol-4-yl)-2-carboxymethoxyimino-acetamido]-3-[3-(E)-(5,6-hydroxy-2-methyl-2-isoindolinio)-1-propen-1-yl]-3-cephem-4-carboxylate]
MIC [1]: 7.2 µg/mL (≈ 11.4 µM)
MIC [2]: 12.5 µg/mL (≈ 19.8 µM)
MIC [3]: 0.2 µg/mL (≈ 0.317 µM)
MIC [4]: 0.4 µg/mL (≈ 0.634 µM)
MIC [5]: 1.1 µg/mL (≈ 1.74 µM)
MIC [6]: 0.49 µg/mL (≈ 0.777 µM)

CC(C)(O/N=C(\C(=O)NC1C(=O)N2C(C(=O)[O-])=C(/C=C/C[n+]3cc4cc(O)c(O)cc4cn3)CS[C@H]12)c1csc(N)n1)C(=O)O (stereo partly shown) [Ii, 7-[(Z)-2-(2-Aminothiazol-4-yl)-2-(1-methyl-1-carboxyethoxy-imino)acetamido]-3-[(E)-3-(6,7-dihydroxyphthalazin-2-io)-1-propen-1-yl]-3-cephem-4-carboxylate]
MIC (B. subtilis PCI 219): 12.5 µg/mL (≈ 19.1 µM)
MIC (C. freundii GN 7391): 25 µg/mL (≈ 38.1 µM)
MIC (C. terrigena IFO 12685): 0.8 µg/mL (≈ 1.22 µM)
MIC (E. cloacae IPM-12): 0.8 µg/mL (≈ 1.22 µM)
MIC (E. coli 255): 0.013 µg/mL (≈ 0.0198 µM)
MIC (E. faecalis A9808): > 100 µg/mL
MIC (E. faecium A24817): > 100 µg/mL
MIC (K. pneumoniae PCI 602): < 0.0063 µg/mL
MIC (M. luteus 1001): 3.1 µg/mL (≈ 4.73 µM)
MIC (M. morgani 1510/9): 0.05 µg/mL (≈ 0.0763 µM)
MIC (M. morgani 1510): 0.8 µg/mL (≈ 1.22 µM)
MIC (P. aeruginosa A20599): 0.2 µg/mL (≈ 0.305 µM)
MIC (P. aeruginosa IPM-8): 0.2 µg/mL (≈ 0.305 µM)
MIC (P. aeruginosa IPM-9): > 100 µg/mL
MIC (P. aeruginosa KKA 19): 0.8 µg/mL (≈ 1.22 µM)
MIC (P. cepacia A21213): 0.8 µg/mL (≈ 1.22 µM)
MIC (P. cepacia No. 651): 1.6 µg/mL (≈ 2.44 µM)
MIC (P. mirabilis IFO-2849): 0.025 µg/mL (≈ 0.0381 µM)
MIC (P. rettgeri IPM-14): 0.1 µg/mL (≈ 0.153 µM)
MIC (P. vulgaris IPM-13): 12.5 µg/mL (≈ 19.1 µM)
MIC (S. aureus 209P): 25 µg/mL (≈ 38.1 µM)
MIC (S. aureus 4-1015 (MRSA)): > 100 µg/mL
MIC (S. aureus IPM-24 (MRSA)): > 100 µg/mL
MIC (S. epidermidis 11-1230): 25 µg/mL (≈ 38.1 µM)
MIC (S. marcescens IPM-15): > 100 µg/mL
MIC (S. marcescens IPM-16): 1.6 µg/mL (≈ 2.44 µM)
MIC (X. maltophilia GN 12873): 100 µg/mL (≈ 153 µM)
MIC (X. maltophilia No. 661): 50 µg/mL (≈ 76.3 µM)
MIC (E. coli Juhl A15119): 0.2 µg/mL (≈ 0.305 µM)
MIC (P. aeruginosa A9843A): 0.1 µg/mL (≈ 0.153 µM)
MIC (S. aureus Smith): 25 µg/mL (≈ 38.1 µM)
